Assay results reported in ChEMBL document CHEMBL5252584, “Design, synthesis and anti-Chikungunya virus activity of lomerizine derivatives” (Bioorg Med Chem Lett, 2023).
pIC50: −log10 of the molar value.

Legend:
Chikungunya virus [1] = test: Antiviral activity against CHIKV infected in human Huh-7 cells assessed as inhibition of viral growth at 2.5 uM incubated for 12 hrs relative to control; type: functional
Chikungunya virus [2] = test: Antiviral activity against CHIKV infected in human Huh-7 cells assessed as inhibition of viral growth at 5 uM incubated for 12 hrs relative to control; type: functional
Chikungunya virus [3] = test: Antiviral activity against CHIKV infected in human Huh-7 cells assessed as inhibition of viral growth at 10 uM incubated for 12 hrs relative to control; type: functional; parameters: scale not given: the % may be the effect or the level left
Huh-7 = test: Cytotoxicity against human Huh-7 cells assessed as reduction in cell viability at 5 uM by CCK8 assay relative to control; type: toxicity, cell-based; conditions: huh-7, 5 µM
Chikungunya virus [4] = test: Antiviral activity against CHIKV infected in human Huh-7 cells assessed as inhibition of viral growth incubated for 12 hrs; type: functional, organism-based; conditions: Huh-7, 12 h
[5] = Selectivity index, ratio of CC50 for cytotoxicity against human Huh-7 cells to IC50 for antiviral activity against CHIKV infected in human Huh-7 cells; type: toxicity, cell-based; conditions: read-out: Ratio CC50/IC50
[6] = Cytotoxicity against human Huh-7 cells assessed as reduction in cell viability by CCK8 assay relative to control; type: toxicity, cell-based

Q: What does the source list for `O=C(/C=C/c1ccc(O)c(O)c1)N1CCN(C(c2ccccc2)c2ccc(Cl)cc2)CC1` (stereo not given)?
A: inhibition at 2.5 µM (Chikungunya virus [1]): 20.2%; inhibition at 5 µM (Chikungunya virus [2]): 34.7%; Activity (Chikungunya virus [3]): 74.4%; cell viability (Huh-7): > 80%

Q: Which inhibition at 2.5 µM (Chikungunya virus [1]) does the source give for `O=C(/C=C/c1ccc(O)c(O)c1)N1CCN(C(c2ccc(F)cc2)c2ccc(F)cc2)CC1` here?
A: Its inhibition at 2.5 µM is 20.1%.

Q: What about the inhibition at 5 µM (Chikungunya virus [2]) of the same compound?
A: The inhibition at 5 µM was 43.9%.

Q: And the Activity (Chikungunya virus [3])?
A: The Activity was 96.3%.

Q: What about the cell viability (Huh-7) of the same compound?
A: Its cell viability is > 80%.

Q: With `O=C(/C=C/c1ccccc1F)N1CCN(C(c2ccc(F)cc2)c2ccc(F)cc2)CC1` as the compound, how does the pIC50 (Chikungunya virus [4]) read?
A: Its pIC50 is 6.21.

Q: And the selectivity ratio [5]?
A: The selectivity ratio was 51.9.

Q: What about the CC50 [6] of the same compound?
A: The CC50 was 31.7 µM.

Q: What about the inhibition at 2.5 µM (Chikungunya virus [1]) of the same compound?
A: Its inhibition at 2.5 µM is 74.2%.

Q: What about the inhibition at 5 µM (Chikungunya virus [2]) of the same compound?
A: Its inhibition at 5 µM is 92.8%.

Q: What about the Activity (Chikungunya virus [3]) of the same compound?
A: Its Activity is 95.8%.

Q: And the cell viability (Huh-7)?
A: Its cell viability is > 80%.

Q: With `O=C(/C=C/c1ccc(F)cc1)N1CCN(C(c2ccc(F)cc2)c2ccc(F)cc2)CC1` as the compound, how does the inhibition at 2.5 µM (Chikungunya virus [1]) read?
A: Its inhibition at 2.5 µM is 9.7%.

Q: What about the inhibition at 5 µM (Chikungunya virus [2]) of the same compound?
A: Its inhibition at 5 µM is 19.6%.

Q: What about the Activity (Chikungunya virus [3]) of the same compound?
A: The Activity was 55.2%.

Q: What about the cell viability (Huh-7) of the same compound?
A: Its cell viability is > 80%.

Q: Which results are given for `O=C(/C=C/c1ccccc1F)N1CCN(C(c2ccccc2)c2ccccc2)CC1`?
A: pIC50 (Chikungunya virus [4]): 5.35; selectivity ratio [5]: 7.6; CC50 [6]: 34.2 µM; inhibition at 2.5 µM (Chikungunya virus [1]): 17.9%; inhibition at 5 µM (Chikungunya virus [2]): 62.1%; Activity (Chikungunya virus [3]): 77.6%; cell viability (Huh-7): > 80%

Q: With `O=C(/C=C/c1cccc(F)c1)N1CCN(C(c2ccc(F)cc2)c2ccc(F)cc2)CC1` as the compound, how does the pIC50 (Chikungunya virus [4]) read?
A: The pIC50 was 5.69.

Q: What about the selectivity ratio [5] of the same compound?
A: The selectivity ratio was 11.1.

Q: What about the CC50 [6] of the same compound?
A: The CC50 was 22.9 µM.

Q: And the inhibition at 2.5 µM (Chikungunya virus [1])?
A: Its inhibition at 2.5 µM is 59.6%.

Q: What about the inhibition at 5 µM (Chikungunya virus [2]) of the same compound?
A: The inhibition at 5 µM was 78.9%.

Q: What about the Activity (Chikungunya virus [3]) of the same compound?
A: The Activity was 85.8%.

Q: What about the cell viability (Huh-7) of the same compound?
A: The cell viability was > 80%.

Q: What does the source list for `Cc1ccc(/C=C/C(=O)N2CCN(C(c3ccccc3)c3ccc(Cl)cc3)CC2)cc1` (stereo not given)?
A: inhibition at 2.5 µM (Chikungunya virus [1]): 13.4%; inhibition at 5 µM (Chikungunya virus [2]): 29.7%; Activity (Chikungunya virus [3]): 56.3%; cell viability (Huh-7): > 80%

Q: With `Cc1ccc(/C=C/C(=O)N2CCN(C(c3ccc(F)cc3)c3ccc(F)cc3)CC2)cc1` as the compound, how does the inhibition at 2.5 µM (Chikungunya virus [1]) read?
A: Its inhibition at 2.5 µM is 21.3%.

Q: And the inhibition at 5 µM (Chikungunya virus [2])?
A: Its inhibition at 5 µM is 32.8%.

Q: And the Activity (Chikungunya virus [3])?
A: Its Activity is 84.3%.

Q: What about the cell viability (Huh-7) of the same compound?
A: The cell viability was > 80%.

Q: With `O=C(/C=C/c1ccc2c(c1)OCO2)N1CCN(C(c2ccccc2)c2ccc(Cl)cc2)CC1` (stereo not given) as the compound, how does the pIC50 (Chikungunya virus [4]) read?
A: Its pIC50 is 5.32.

Q: What about the selectivity ratio [5] of the same compound?
A: Its selectivity ratio is 6.5.

Q: And the CC50 [6]?
A: Its CC50 is 31.4 µM.

Q: And the inhibition at 2.5 µM (Chikungunya virus [1])?
A: Its inhibition at 2.5 µM is 13.2%.

Q: And the inhibition at 5 µM (Chikungunya virus [2])?
A: The inhibition at 5 µM was 52.3%.

Q: And the Activity (Chikungunya virus [3])?
A: The Activity was 86.5%.

Q: What about the cell viability (Huh-7) of the same compound?
A: The cell viability was > 80%.

Q: With `O=C(/C=C/c1ccc2c(c1)OCO2)N1CCN(C(c2ccc(F)cc2)c2ccc(F)cc2)CC1` as the compound, how does the pIC50 (Chikungunya virus [4]) read?
A: Its pIC50 is 6.35.

Q: What about the selectivity ratio [5] of the same compound?
A: The selectivity ratio was 66.

Q: What about the CC50 [6] of the same compound?
A: Its CC50 is 29.7 µM.

Q: What about the inhibition at 2.5 µM (Chikungunya virus [1]) of the same compound?
A: Its inhibition at 2.5 µM is 86.9%.

Q: And the inhibition at 5 µM (Chikungunya virus [2])?
A: Its inhibition at 5 µM is 93.1%.

Q: What about the Activity (Chikungunya virus [3]) of the same compound?
A: The Activity was 97.4%.

Q: And the cell viability (Huh-7)?
A: The cell viability was > 80%.

Q: With `O=C(/C=C/c1cccnc1)N1CCN(C(c2ccc(F)cc2)c2ccc(F)cc2)CC1` as the compound, how does the pIC50 (Chikungunya virus [4]) read?
A: Its pIC50 is 5.79.

Q: What about the selectivity ratio [5] of the same compound?
A: The selectivity ratio was 13.

Q: And the CC50 [6]?
A: The CC50 was 20.9 µM.

Q: What about the inhibition at 2.5 µM (Chikungunya virus [1]) of the same compound?
A: Its inhibition at 2.5 µM is 53.8%.

Q: What about the inhibition at 5 µM (Chikungunya virus [2]) of the same compound?
A: Its inhibition at 5 µM is 54.4%.

Q: What about the Activity (Chikungunya virus [3]) of the same compound?
A: Its Activity is 76.5%.

Q: And the cell viability (Huh-7)?
A: The cell viability was > 80%.

Q: With `O=C(/C=C/c1ccncc1)N1CCN(C(c2ccc(F)cc2)c2ccc(F)cc2)CC1` as the compound, how does the pIC50 (Chikungunya virus [4]) read?
A: The pIC50 was 5.63.

Q: And the selectivity ratio [5]?
A: The selectivity ratio was 13.3.

Q: And the CC50 [6]?
A: The CC50 was 31.3 µM.

Q: What about the inhibition at 2.5 µM (Chikungunya virus [1]) of the same compound?
A: The inhibition at 2.5 µM was 58.1%.

Q: And the inhibition at 5 µM (Chikungunya virus [2])?
A: Its inhibition at 5 µM is 90.7%.

Q: What about the Activity (Chikungunya virus [3]) of the same compound?
A: Its Activity is 95.3%.

Q: And the cell viability (Huh-7)?
A: Its cell viability is > 80%.

Q: With `O=c1cc(-c2ccccc2)oc2cc(O)c(O)c(O)c12` [BAICALEIN] as the compound, how does the pIC50 (Chikungunya virus [4]) read?
A: Its pIC50 is 4.77.

Q: What about the selectivity ratio [5] of the same compound?
A: The selectivity ratio was > 6.

Q: What about the CC50 [6] of the same compound?
A: Its CC50 is > 100 µM.

Q: With `COc1ccc(CN2CCN(C(c3ccc(F)cc3)c3ccc(F)cc3)CC2)c(OC)c1OC` [LOMERIZINE] as the compound, how does the pIC50 (Chikungunya virus [4]) read?
A: The pIC50 was 5.40.

Q: What about the selectivity ratio [5] of the same compound?
A: Its selectivity ratio is > 24.9.

Q: What about the CC50 [6] of the same compound?
A: The CC50 was > 100 µM.
